Data: ChEMBL document CHEMBL1146991, “The synthesis of highly potent, selective, and water-soluble agonists at the human adenosine A3 receptor” (Bioorg Med Chem Lett, 2006)
≈ marks a conversion by molar mass, not a printed value.

How the values were obtained:
Adenosine receptor A3 [1] = biological target: T1, Adenosine receptor A3 (Homo sapiens, UniProt P0DMS8); experiment: Binding affinity to human adenosine A3 receptor
T1 sequence (P0DMS8 whole entry): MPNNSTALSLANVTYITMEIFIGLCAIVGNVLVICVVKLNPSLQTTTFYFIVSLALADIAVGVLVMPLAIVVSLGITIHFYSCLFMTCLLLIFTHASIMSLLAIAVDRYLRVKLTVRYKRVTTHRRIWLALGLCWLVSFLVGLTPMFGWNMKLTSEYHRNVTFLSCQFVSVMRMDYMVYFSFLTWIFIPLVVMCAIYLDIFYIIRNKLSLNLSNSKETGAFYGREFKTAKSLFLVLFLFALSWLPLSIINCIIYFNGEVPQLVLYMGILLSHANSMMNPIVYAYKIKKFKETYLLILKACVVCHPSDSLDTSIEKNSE

[2] = biological target: Adenosine receptors; A1 & A3 (Homo sapiens) (UniProt P30542+P0DMS8); experiment: Selectivity for human adenosine A3 receptor over human adenosine A1 receptor; assay type: protein assay
Sequence of Adenosine receptors; A1 & A3 (Homo sapiens) (P30542 whole entry, looked up, one chain of several): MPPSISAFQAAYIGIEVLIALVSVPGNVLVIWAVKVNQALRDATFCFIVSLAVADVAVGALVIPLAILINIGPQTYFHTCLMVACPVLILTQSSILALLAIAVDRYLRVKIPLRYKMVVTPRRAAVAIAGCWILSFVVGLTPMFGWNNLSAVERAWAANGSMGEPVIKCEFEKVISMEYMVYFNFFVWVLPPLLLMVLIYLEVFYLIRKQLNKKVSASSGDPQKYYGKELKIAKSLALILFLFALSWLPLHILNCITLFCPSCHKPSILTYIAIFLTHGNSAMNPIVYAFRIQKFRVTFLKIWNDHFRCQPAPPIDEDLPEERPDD

[3] = biological target: Adenosine receptor A2a (Homo sapiens) (UniProt P29274); experiment: Increase of cAMP production in HEK293 cell expressing human adenosine A2A receptor at 3 uM; assay type: functional, cell-based
Sequence of Adenosine receptor A2a (Homo sapiens) (P29274 whole entry): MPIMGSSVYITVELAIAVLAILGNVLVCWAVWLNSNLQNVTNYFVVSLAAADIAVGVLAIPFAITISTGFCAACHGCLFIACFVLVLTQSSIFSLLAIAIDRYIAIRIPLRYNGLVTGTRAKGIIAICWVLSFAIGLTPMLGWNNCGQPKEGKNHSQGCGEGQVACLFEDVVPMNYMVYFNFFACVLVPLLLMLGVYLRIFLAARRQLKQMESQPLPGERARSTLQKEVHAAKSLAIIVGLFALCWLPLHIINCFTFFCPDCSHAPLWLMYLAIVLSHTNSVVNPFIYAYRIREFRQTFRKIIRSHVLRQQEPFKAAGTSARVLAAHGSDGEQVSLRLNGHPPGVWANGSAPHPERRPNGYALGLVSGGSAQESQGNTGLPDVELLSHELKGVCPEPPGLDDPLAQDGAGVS

[4] = biological target: T2, Adenosine receptor A2b (Homo sapiens) (UniProt P29275); experiment: Increase of cAMP production in HEK293 cell expressing human adenosine A2B receptor at 3 uM; assay type: functional, cell-based
T2 sequence (whole entry): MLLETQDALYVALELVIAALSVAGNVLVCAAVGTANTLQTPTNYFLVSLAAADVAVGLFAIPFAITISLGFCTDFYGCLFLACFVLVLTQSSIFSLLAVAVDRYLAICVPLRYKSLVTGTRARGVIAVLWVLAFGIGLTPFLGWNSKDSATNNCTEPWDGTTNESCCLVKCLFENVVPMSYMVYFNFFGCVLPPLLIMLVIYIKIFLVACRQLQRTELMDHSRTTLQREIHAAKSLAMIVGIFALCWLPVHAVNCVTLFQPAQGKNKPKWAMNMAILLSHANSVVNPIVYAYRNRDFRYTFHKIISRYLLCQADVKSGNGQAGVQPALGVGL

Adenosine receptor A3 [5] = biological target: T1, Adenosine receptor A3; experiment: Inhibition of isoproterenol-induced increase of cAMP in HEK293 cell expressing human adenosine A3 receptor; assay type: functional, cell-based
[6] = Solubility in citrate buffer at pH 4; assay type: physicochemical

| SMILES | Ki (Adenosine receptor A3 [1]) [nM] | Selectivity ratio [2] | also measured |
| --- | --- | --- | --- |
| CNC(=O)[C@H]1O[C@@H](n2cnc3c(NCc4cc(Cl)ccc4OCC(=O)N4CCCCC4)ncnc32)[C@H](O)[C@@H]1N | 18 | 720 |  |
| CNC(=O)[C@H]1O[C@@H](n2cnc3c(NCc4cc(Cl)ccc4OCC(=O)O)ncnc32)[C@H](O)[C@@H]1N | 130 | 222 |  |
| CNC(=O)[C@H]1O[C@@H](n2cnc3c(NCc4cc(Cl)ccc4OCC(=O)N4CCOCC4)ncnc32)[C@H](O)[C@@H]1N | 20 | 700 |  |
| CNC(=O)[C@H]1O[C@@H](n2cnc3c(NCc4cc(Cl)ccc4OCC(=O)N4CCC(N(C)C)CC4)ncnc32)[C@H](O)[C@@H]1N | 9.1 | 456 |  |
| CNC(=O)[C@H]1O[C@@H](n2cnc3c(NCc4cc(Cl)ccc4OC)ncnc32)[C@H](O)[C@@H]1N | 15 | 317 |  |
| CNC(=O)[C@H]1O[C@@H](n2cnc3c(NC)ncnc32)[C@H](O)[C@@H]1NC(C)=O | > 3000 |  |  |
| CNC(=O)[C@@H]1C[C@@H](O)[C@H](n2cnc3c(NC)ncnc32)O1 | 59 | 6 |  |
| CNC(=O)[C@H]1O[C@@H](n2cnc3c(NCc4cc(OC)ccc4OC)ncnc32)[C@H](O)[C@@H]1N | 160 | 294 |  |
| CNC(=O)[C@H]1O[C@@H](n2cnc3c(NCc4cc(OC)ccc4OC)ncnc32)[C@H](O)[C@@H]1O | 3.9 | 45 |  |
| CNC(=O)[C@H]1O[C@@H](n2cnc3c(NCc4cc(Cl)ccc4OCC(N)=O)ncnc32)[C@H](O)[C@@H]1N | 6.8 | 526 |  |
| CNC(=O)[C@H]1O[C@@H](n2cnc3c(NC)ncnc32)[C@H](O)[C@@H]1O |  | 13 |  |
| CNC(=O)[C@H]1O[C@@H](n2cnc3c(NC)ncnc32)[C@H](O)[C@@H]1N |  | 194 |  |
| CNC(=O)[C@H]1O[C@@H](n2cnc3c(NCc4cc(Cl)ccc4OCC(=O)N4CCNCC4)ncnc32)[C@H](O)[C@@H]1N | 9.4 | 445 | Activity [3]: 16%; Activity [4]: 1%; EC50 (Adenosine receptor A3 [5]): 8.1 nM; solubility [6]: 50 mg/mL (≈ 89.3 mM) |
| CNC(=O)[C@H]1O[C@@H](n2cnc3c(NC)ncnc32)C[C@@H]1O | 87 | 12.6 |  |
| CNC(=O)[C@H]1O[C@@H](n2cnc3c(NCc4cc(Cl)cc(Cl)c4)ncnc32)[C@H](O)[C@@H]1O | 2.5 | 9.4 |  |
| CNC(=O)[C@H]1O[C@@H](n2cnc3c(NCc4cc(Cl)cc(Cl)c4)ncnc32)[C@H](O)[C@@H]1N | 25 | 148 |  |
| CCNC(=O)N[C@H]1[C@@H](O)[C@H](n2cnc3c(NC)ncnc32)O[C@@H]1C(=O)NC | > 3000 |  |  |
| CNC(=O)[C@H]1O[C@@H](n2cnc3c(NCc4cc(Cl)ccc4OCc4ccccc4)ncnc32)[C@H](O)[C@@H]1N | 16 | 691 |  |
| CNC(=O)[C@H]1O[C@@H](n2cnc3c(NC)ncnc32)[C@H](O)[C@@H]1NS(C)(=O)=O | > 3000 |  |  |
